Reference: patent US20250136576A1, “Heterocyclic Compounds and Uses Thereof” (ACEA Therapeutics, Inc., priority 2021, published 2025)
Like-named read-outs stand apart in the source and are kept apart here.

Tested on: KM12-luc cells
Assay: Cell proliferation and growth inhibition assay (CCK-8) in KM12-luc
Format: cell-based
Details: read-out: NTRK IC50 in KM12-luc
Experimental: MV-4-11 and H1975 cells were obtained from the American Type Culture Collection and KM12-luc cells were obtained from JCRB Cell Bank. All cell lines were maintained at 37° C. with 5% C02, in media supplemented with 10% fetal bovine serum and penicillin (100 units/mL) and streptomycin (100 μg/mL). MV-4-11 cells were maintained in Iscove's Modified Dubecco's Medium, H1975 cells were cultured with RPMI 1640 media, and KM12-luc cells were maintained in Dulbecco's Modification of Eagle's Medium. CCK-8 reagent was obtained from Yeasen. Cell proliferation was assessed by CCK-8 assay (Yeasen) per the manufacturer's instructions. […] Cell viability was assayed by incubating the cells with CCK-8 reagent for 1-4 hrs. Absorbance was measured at OD450 using the Beckman DTX880. The data was calculated using GraphPad Prism version 6.01. The IC50 values were fitted using a non-linear regression model with a sigmoidal dose response.

[1] = KM12-Luc, 72 h, KM12-luc cells, treated with test compounds for 72 hrs, CCK-8 viability

Row | Compound | IC50 [1] | further results
1 | CCC(=O)Nc1cccc(Nc2ncc(F)c(Nc3ccc(N4CCN(C(C)=O)CC4)c(F)c3)n2)c1 [Compound 158, N-(3-((4-((4-(4-acetylpiperazin-1-yl)-3-fluorophenyl)amino)-5-fluoropyrimidin-2-yl)amino)phenyl)propionamide] | > 1000 nM | 
2 | CCC(=O)Nc1cccc(Nc2ncc(Cl)c(Nc3ccc(N4CCNCC4)cc3OC)n2)c1 [Compound 160, N-(3-((5-chloro-4-((2-methoxy-4-(piperazin-1-yl)phenyl)amino)pyrimidin-2-yl)amino)phenyl)propionamide] | 210 nM | 
3 | CCC(=O)Nc1cccc(Nc2ncc(Cl)c(Nc3ccc(N4CCN(C)CC4)cc3OC)n2)c1 [Compound 161, N-(3-((5-chloro-4-((2-methoxy-4-(4-methylpiperazin-1-yl)phenyl)amino)pyrimidin-2-yl)amino)phenyl)propionamide] | 146 nM | 
4 | CCC(=O)Nc1cccc(Nc2ncc(Cl)c(Nc3ccc(N4CCN(C(C)=O)CC4)cc3OC)n2)c1 [Compound 162, N-(3-((4-((4-(4-acetylpiperazin-1-yl)-2-methoxyphenyl)amino)-5-chloropyrimidin-2-yl)amino)phenyl)propionamide] | 129 nM | 
5 | CCC(=O)Nc1cccc(Nc2ncc(Cl)c(Nc3ccc(C4CCCNC4)cc3OC)n2)c1 (stereo not shown) [Compound 164, N-(3-((5-chloro-4-((2-methoxy-4-(piperidin-3-yl)phenyl)amino)pyrimidin-2-yl)amino)phenyl)propionamide] | 50.5 nM | 
6 | CCC(=O)Nc1cccc(Nc2ncc(Cl)c(Nc3ccc(C4CCCN(C(C)=O)C4)cc3OC)n2)c1 (stereo not shown) [Compound 165, N-(3-((4-((4-(1-acetylpiperidin-3-yl)-2-methoxyphenyl)amino)-5-chloropyrimidin-2-yl)amino)phenyl)propionamide] | 171 nM | 
7 | COc1cc(N2CCN(C(C)=O)CC2)ccc1Nc1nc(Nc2cccc(NC(C)=O)c2)ncc1C(F)(F)F [Compound 173, N-(3-((4-((4-(4-acetylpiperazin-1-yl)-2-methoxyphenyl)amino)-5-(trifluoromethyl)pyrimidin-2-yl)amino)phenyl)acetamide] | 85.7 nM | 
8 | CNc1cccc(Oc2nc(Nc3ccc(N4CCN(C)CC4)c(F)c3)nc3[nH]ccc23)c1 [Compound 177, N-(3-fluoro-4-(4-methylpiperazin-1-yl)phenyl)-4-(3-(methylamino)phenoxy)-7H-pyrrolo[2,3-d]pyrimidin-2-amine] | 132 nM | 
9 | CN(C)CCN(C)c1ccc(Nc2nc(Oc3cccc(N)c3)c3cc[nH]c3n2)cc1F [Compound 180, N^4-(4-(3-aminophenoxy)-7H-pyrrolo[2,3-d]pyrimidin-2-yl)-N^1-(2-(dimethylamino)ethyl)-2-fluoro-N1-methylbenzene-1,4-diamine] | 3060 nM | 
10 | CC(=O)Nc1cccc(Oc2nc(Nc3ccc(N(C)CCN(C)C)c(F)c3)nc3[nH]ccc23)c1 [Compound 181a, N-(3-((2-((4-((2-(dimethylamino)ethyl)(methyl)amino)-3-fluorophenyl)amino)-7H-pyrrolo[2,3-d]pyrimidin-4-yl)oxy)phenyl)acetamide] | > 10000 nM | 
11 | CC(=O)Nc1cccc(Oc2nc(Nc3ccc4c(c3)[N+](C)(C)CCN4C)nc3[nH]ccc23)c1 [Compound 181b, 7-((4-(3-acetamidophenoxy)-7H-pyrrolo[2,3-d]pyrimidin-2-yl)amino)-1,1,4-trimethyl-1,2,3,4-tetrahydroquinoxalin-1-ium] |  | IC50 (KM12-luc cells, treated with test compounds for 72 hrs, CCK-8 viability): > 10000 nM
12 | CN(C)CCN(C)c1ccc(Nc2nc(Oc3cccc(N)c3)c3cc[nH]c3n2)cc1 [Compound 184, N^1-(4-(3-aminophenoxy)-7H-pyrrolo[2,3-d]pyrimidin-2-yl)-N^4-(2-(dimethylamino)ethyl)-N^4-methylbenzene-1,4-diamine] | 407 nM | 
13 | CC(=O)Nc1cc(Nc2nc(-c3c[nH]c4ccccc34)c3cc[nH]c3n2)ccc1N(C)CCN(C)C [Compound 189, N-(5-((4-(1H-indol-3-yl)-7H-pyrrolo[2,3-d]pyrimidin-2-yl)amino)-2-((2-(dimethylamino)ethyl)(methyl)amino)phenyl)acetamide] | 28.7 nM | 
14 | CC(=O)Nc1cc(Nc2nc(-c3cn(C)c4ccccc34)c3cc[nH]c3n2)cc(F)c1N(C)CCN(C)C [Compound 190, N-(2-((2-(dimethylamino)ethyl)(methyl)amino)-3-fluoro-5-((4-(1-methyl-1H-indol-3-yl)-7H-pyrrolo[2,3-d]pyrimidin-2-yl)amino)phenyl)acetamide] | 60.4 nM | 
15 | CNc1cc(Nc2nc(-c3cn(C)c4ccccc34)c3cc[nH]c3n2)ccc1N(C)CCN(C)C [Compound 192, N^1-(2-(dimethylamino)ethyl)-N^1,N^2-dimethyl-N^4-(4-(1-methyl-1H-indol-3-yl)-7H-pyrrolo[2,3-d]pyrimidin-2-yl)benzene-1,2,4-triamine] | 525 nM | 
16 | CN(C)CCN(C)c1ccc(Nc2nc(-c3cn(C)c4ccccc34)c3cc[nH]c3n2)cc1NCC(F)(F)F [Compound 194, N^1-(2-(dimethylamino)ethyl)-N^1-methyl-N^4-(4-(1-methyl-1H-indol-3-yl)-7H-pyrrolo[2,3-d]pyrimidin-2-yl)-N^2-(2,2,2-trifluoroethyl)benzene-1,2,4-triamine] | 722 nM | 
17 | CCN(CCN(C)C)c1c(F)cc(Nc2nc(-c3cn(C)c4ccccc34)c3cc[nH]c3n2)cc1NC(C)=O [Compound 195a, N-(2-((2-(dimethylamino)ethyl)(ethyl)amino)-3-fluoro-5-((4-(1-methyl-1H-indol-3-yl)-7H-pyrrolo[2,3-d]pyrimidin-2-yl)amino)phenyl)acetamide] | 153 nM | 
18 | CCN(CCN(C)C)c1c(F)cc(Nc2nc(-c3cn(C)c4ccccc34)c3ccn(C)c3n2)cc1NC(C)=O [Compound 195b, N-(2-((2-(dimethylamino)ethyl)(ethyl)amino)-3-fluoro-5-((7-methyl-4-(1-methyl-1H-indol-3-yl)-7H-pyrrolo[2,3-d]pyrimidin-2-yl)amino)phenyl)acetamide] | 561 nM | 
19 | CCN(CCN(C)C)c1ccc(Nc2nc(-c3cn(C)c4ccccc34)c3cc[nH]c3n2)cc1NC [Compound 197, N^1-(2-(dimethylamino)ethyl)-N^1-ethyl-N^2-methyl-N^4-(4-(1-methyl-1H-indol-3-yl)-7H-pyrrolo[2,3-d]pyrimidin-2-yl)benzene-1,2,4-triamine] | 376 nM | 
20 | CN(C)CCN(C)c1ccc(Nc2nc(-c3cn(C)c4ccccc34)c3cc[nH]c3n2)cc1N [Compound 204, N^1-(2-(dimethylamino)ethyl)-N^1-methyl-N^4-(4-(1-methyl-1H-indol-3-yl)-7H-pyrrolo[2,3-d]pyrimidin-2-yl)benzene-1,2,4-triamine] | 45.8 nM | 
21 | CC(=O)Nc1cc(Nc2nc(-c3cn(C)c4ccccc34)c3cc[nH]c3n2)ccc1N(C)CCN(C)C [Compound 205a, N-(2-((2-(dimethylamino)ethyl)(methyl)amino)-5-((4-(1-methyl-1H-indol-3-yl)-7H-pyrrolo[2,3-d]pyrimidin-2-yl)amino)phenyl)acetamide] |  | IC50 (KM12-Luc, 72 h): 37 nM
22 | CCNc1cc(Nc2nc(-c3cn(C)c4ccccc34)c3cc[nH]c3n2)ccc1N(C)CCN(C)C [Compound 205b, N^1-(2-(dimethylamino)ethyl)-N^2-ethyl-N1-methyl-N^4-(4-(1-methyl-1H-indol-3-yl)-7H-pyrrolo[2,3-d]pyrimidin-2-yl)benzene-1,2,4-triamine] |  | IC50 (KM12-Luc, 72 h): 304 nM
23 | CN(C)CCN(C)c1ccc(Nc2nc(-c3cn(C)c4ccccc34)c3cc[nH]c3n2)cc1NS(C)(=O)=O [Compound 205c, N-(2-((2-(dimethylamino)ethyl)(methyl)amino)-5-((4-(1-methyl-1H-indol-3-yl)-7H-pyrrolo[2,3-d]pyrimidin-2-yl)amino)phenyl)methanesulfonamide] | 329 nM | 
24 | CN(C)CCN(C)c1ccc(Nc2nc(-c3cn(C)c4ccccc34)c3cc[nH]c3n2)cc1S(C)(=O)=O [Compound 206, N^1-(2-(dimethylamino)ethyl)-N^1-methyl-N^4-(4-(1-methyl-1H-indol-3-yl)-7H-pyrrolo[2,3-d]pyrimidin-2-yl)-2-(methylsulfonyl)benzene-1,4-diamine] | 176 nM | 
25 | CN(C)CCN(C)c1ccc(Nc2nc(-c3cn(C)c4ccccc34)c3cc[nH]c3n2)cc1N(C)C [Compound 207, N^1-(2-(dimethylamino)ethyl)-N^1,N^2,N^2-trimethyl-N^4-(4-(1-methyl-1H-indol-3-yl)-7H-pyrrolo[2,3-d]pyrimidin-2-yl)benzene-1,2,4-triamine] | 348 nM | 
26 | CCN(CCN(C)C)c1ccc(Nc2nc(-c3cn(C)c4ccccc34)c3cc[nH]c3n2)cc1F [Compound 208, N^1-(2-(dimethylamino)ethyl)-N^1-ethyl-2-fluoro-N^4-(4-(1-methyl-1H-indol-3-yl)-7H-pyrrolo[2,3-d]pyrimidin-2-yl)benzene-1,4-diamine] | 381 nM | 
27 | CCN(CCN(C)C)c1ccc(Nc2nc(-c3cn(C)c4ccccc34)c3cc[nH]c3n2)cc1N [Compound 211, N^1-(2-(dimethylamino)ethyl)-N^1-ethyl-N^4-(4-(1-methyl-1H-indol-3-yl)-7H-pyrrolo[2,3-d]pyrimidin-2-yl)benzene-1,2,4-triamine] | 40.3 nM | 
28 | C=CC(=O)Nc1cc(Nc2nc(-c3cn(C)c4ccccc34)c3cc[nH]c3n2)ccc1N(CC)CCN(C)C [Compound 212a, N-(2-((2-(dimethylamino)ethyl)(ethyl)amino)-5-((4-(1-methyl-1H-indol-3-yl)-7H-pyrrolo[2,3-d]pyrimidin-2-yl)amino)phenyl)acrylamide] | 62.7 nM | 
